Experimental data reported in ChEMBL document CHEMBL6109077, “Design, synthesis and in vitro validation of bivalent binders of SARS-CoV-2 spike protein: Obeticholic, betulinic and glycyrrhetinic acids as building blocks” (Bioorg Med Chem, 2025).
Calls of active or inactive are those of the source. No cut-off for these calls is given here.

Target: Glycoprotein (Vesicular stomatitis Indiana virus (strain San Juan) (VSIV)) (UniProt P03522)
Experiment: Inhibition of glycoprotein in pseudotyped Vesicular stomatitis virus infected in 293T/ACE2 cells assessed as reduction in viral entry at 10 uM preincubated with virus for 1 hr followed by cell infection and measured after 48 hrs by bright-glo luciferase reporter gene assay
Format: cell-based
Settings: time 49.0 hrs

Chain of Glycoprotein (Vesicular stomatitis Indiana virus (strain San Juan) (VSIV)) (P03522 whole entry): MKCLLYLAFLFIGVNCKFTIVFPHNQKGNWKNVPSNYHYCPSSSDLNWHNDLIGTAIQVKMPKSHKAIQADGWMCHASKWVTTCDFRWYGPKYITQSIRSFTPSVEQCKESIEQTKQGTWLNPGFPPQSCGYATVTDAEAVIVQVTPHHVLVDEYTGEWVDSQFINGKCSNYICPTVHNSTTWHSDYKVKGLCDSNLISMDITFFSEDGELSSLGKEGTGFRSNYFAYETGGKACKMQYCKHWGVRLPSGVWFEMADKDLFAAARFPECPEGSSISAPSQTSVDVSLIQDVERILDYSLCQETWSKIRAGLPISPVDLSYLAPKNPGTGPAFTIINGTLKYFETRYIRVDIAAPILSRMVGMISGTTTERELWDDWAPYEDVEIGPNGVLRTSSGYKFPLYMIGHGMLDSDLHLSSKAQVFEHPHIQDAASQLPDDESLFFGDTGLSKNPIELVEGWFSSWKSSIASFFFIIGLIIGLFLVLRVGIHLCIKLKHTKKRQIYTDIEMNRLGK

## C=C(C)[C@@H]1CC[C@]2(C(=O)OC)CC[C@]3(C)[C@H](CC[C@@H]4[C@@]5(C)CC[C@H](OC(=O)CCCNC(=O)CC[C@@H](C)[C@H]6CC[C@H]7[C@@H]8[C@H](O)[C@H](CC)[C@@H]9C[C@H](O)CC[C@]9(C)[C@H]8CC[C@]67C)C(C)(C)[C@@H]5CC[C@]43C)[C@@H]12
  inhibition: inactive

## C=C(C)[C@@H]1CC[C@]2(C(=O)OC)CC[C@]3(C)[C@H](CC[C@@H]4[C@@]5(C)CC[C@H](OC(=O)CCCCCCCCNC(=O)CC[C@@H](C)[C@H]6CC[C@H]7[C@@H]8[C@H](O)[C@H](CC)[C@@H]9C[C@H](O)CC[C@]9(C)[C@H]8CC[C@]67C)C(C)(C)[C@@H]5CC[C@]43C)[C@@H]12
  inhibition: inactive

## CC[C@H]1[C@@H](O)[C@@H]2[C@H](CC[C@]3(C)[C@@H]([C@H](C)CCC(=O)NCCCCCCn4cc(CCCCC(=O)O[C@H]5CC[C@H]6[C@@H](CC[C@]7(C)[C@@H]6C(=O)C=C6[C@@H]8C[C@@](C)(C(=O)OC)CC[C@]8(C)CC[C@]67C)C5(C)C)nn4)CC[C@@H]23)[C@@]2(C)CC[C@@H](O)C[C@@H]12
  inhibition: inactive

## C=C(C)[C@@H]1CC[C@]2(C(=O)OC)CC[C@@]3(C)[C@@H]4CC[C@@H]5[C@H](CC[C@H](OC(=O)CCCCc6cn(CCCCCCNC(=O)CC[C@@H](C)[C@H]7CC[C@H]8[C@@H]9[C@H](O)[C@H](CC)[C@@H]%10C[C@H](O)CC[C@]%10(C)[C@H]9CC[C@]78C)nn6)C5(C)C)[C@H]4CC[C@@H]3[C@@H]12
  inhibition: inactive
